From US11845760B2, “PRMT5 inhibitors” (AMGEN INC., priority 2020, dated 2023)
Read-outs that look alike come from different tables or passages of the source.

Assays:
HCT116 MTAP null cells = experiment: HCT116 MTAP null cell line proliferation (CellTiter-Glo cell viability, 6 days); assay type: cell-based; settings: HCT116 MTAP null cells, 6 days of treatment, CellTiter-Glo cell viability, read-out: HCT-116 MTAP null IC50
Protocol: (§1) To assess selective anti-proliferative activity of compounds of the invention in cells that have loss expression of MTAP, an HCT-116 isogenic cell line pair was utilized where one cell line was engineered to genetically knockout both MTAP alleles. Cell viability was then assessed in both the parent HCT-116 cell line and the MTAP null cell line after 6 days of treatment with compounds of the present invention. Selective anti-proliferative activity in the MTAP null cell line indicates MTA-cooperative inhibition of PRMT5 and ability to inhibit growth of cancer cells that have loss of MTAP.
(§2) HCT116 MTAP null and WT cells were seeded in 96-well tissue culture plates in RPMI 1640 media+10% fetal bovine serum. Plates were incubated overnight at 37° C. and 5% CO2. Cells were then treated with an 8- or 9-point serial dilution of compound, using a top concentration of 1, or 10 μM, 1:3 serial dilution steps and, a DMSO-only control. Cells were incubated in the presence of drug for 6 days. Effects on cell viability were measured with the CellTiter-Glo® Luminescent Cell Viability Assay (Promega) per manufacturer's recommendation. Assay plates were read on an EnVision™ Multilabel Reader using the Ultra-Sensitive luminescence module. IC50 values were calculated with GraphPad Prism v 5.01 using symmetrical sigmoidal dose-response least squares fit with Hill slope fixed to −1 and top constrain to 100% or GeneData Screener using a 4-parameter logistic model to fit dose response curves.
(§3) Alternatively, compounds could be assayed with a 384 well plate format:
(§4) Compounds were pre-spotted into 384 well plates with a 22-point serial dilution of compound, using a top concentration of 10 or 50 μM, 1:2 serial dilution steps and, a DMSO-only control. HCT116 MTAP null and WT cells were then seeded as above and after 6 days effects on cell viability were measured with the CellTiter-Glo® Luminescent Cell Viability Assay (Promega). Assay plates were read as above and IC50 values were calculated with GeneData Screener using a 4-parameter logistic model to fit dose response curves. The reported IC50 represents the value where the curve transits 50% of control.

HCT116 WT cells = experiment: HCT116 WT cell line proliferation (CellTiter-Glo cell viability, 6 days); assay type: cell-based; settings: HCT116 WT (parent) cells, 6 days of treatment, CellTiter-Glo cell viability, read-out: HCT-116 WT IC50
Protocol: as §1, §2, §3, §4

Row | Structure (SMILES) | IC50 (HCT116 MTAP null cells; HCT116-MTAP null, 144 h) [µM] | IC50 (HCT116 WT cells; Homo sapiens, HCT-116, 144 h) [µM] | IC50 (HCT116 MTAP null cells) [µM] | IC50 (HCT116 WT cells) [µM]
1 | CCOc1ccc([C@@H]2COC[C@H](C)N2C(=O)c2ccc3nc(N)c4c(c3c2)COC4)nn1 (racemic) [Example 319, (4-amino-1,3-dihydrofuro[3,4-c]quinolin-8-yl)((3R,5S)-3-(6-ethoxy-3-pyridazinyl)-5-methyl-4-morpholinyl)methanone and (4-amino-1,3-dihydrofuro[3,4-c]quinolin-8-yl)((3S,5R)-3-(6-ethoxy-3-pyridazinyl)-5-methyl-4-morpholinyl)methanone] | 0.145 | 5.58 |  | 
2 | CCOc1ccc([C@@H]2COC[C@H](C)N2C(=O)c2cc3c4c(c(N)nc3cn2)COC4)nn1 (racemic) [Example 320, (4-amino-1,3-dihydrofuro[3,4-c][1,7]naphthyridin-8-yl)((3R,5S)-3-(6-ethoxy-3-pyridazinyl)-5-methyl-4-morpholinyl)methanone and (4-amino-1,3-dihydrofuro[3,4-c][1,7]naphthyridin-8-yl)((3S,5R)-3-(6-ethoxy-3-pyridazinyl)-5-methyl-4-morpholinyl)methanone] | 0.101 | 3.68 |  | 
3 | CCOc1ccc([C@@H]2COC[C@H](C)N2C(=O)c2ccc3nc(N)c4c(c3c2)CO[C@@H]4C)nn1 (racemic) [Example 321, ((3R)-4-amino-3-methyl-1,3-dihydrofuro[3,4-c]quinolin-8-yl)((3R,5S)-3-(6-ethoxy-3-pyridazinyl)-5-methyl-4-morpholinyl)methanone and ((3R)-4-amino-3-methyl-1,3-dihydrofuro[3,4-c]quinolin-8-yl)((3S,5R)-3-(6-ethoxy-3-pyridazinyl)-5-methyl-4-morpholinyl)methanone] | 0.093 | 4.96 |  | 
4 | CCOc1ccc([C@@H]2COC[C@H](C)N2C(=O)c2cc3c4c(c(N)nc3cc2Cl)COC4)nn1 (racemic) [Example 322, (4-amino-7-chloro-1,3-dihydrofuro[3,4-c]quinolin-8-yl)((3R,5S)-3-(6-ethoxy-3-pyridazinyl)-5-methyl-4-morpholinyl)methanone and (4-amino-7-chloro-1,3-dihydrofuro[3,4-c]quinolin-8-yl)((3S,5R)-3-(6-ethoxy-3-pyridazinyl)-5-methyl-4-morpholinyl)methanone] | 0.006 | 0.279 |  | 
5 | CCOc1ccc([C@@H]2COC[C@H](C)N2C(=O)c2cc3c4c(c(N)nc3cn2)[C@@H](C)OC4)nn1 (racemic) [Example 326, ((3R)-4-amino-3-methyl-1,3-dihydrofuro[3,4-c][1,7]naphthyridin-8-yl)((3R,5S)-3-(6-ethoxy-3-pyridazinyl)-5-methyl-4-morpholinyl)methanone and ((3R)-4-amino-3-methyl-1,3-dihydrofuro[3,4-c][1,7]naphthyridin-8-yl)((3S,5R)-3-(6-ethoxy-3-pyridazinyl)-5-methyl-4-morpholinyl)methanone] | 0.072 | 2.58 |  | 
6 | CCOc1ccc([C@@H]2COC[C@H](C)N2C(=O)c2cc3c4c(c(N)nc3cc2F)COC4)nn1 (racemic) [Example 327, (4-amino-7-fluoro-1,3-dihydrofuro[3,4-c]quinolin-8-yl)((3R,5S)-3-(6-ethoxy-3-pyridazinyl)-5-methyl-4-morpholinyl)methanone and (4-amino-7-fluoro-1,3-dihydrofuro[3,4-c]quinolin-8-yl)((3S,5R)-3-(6-ethoxy-3-pyridazinyl)-5-methyl-4-morpholinyl)methanone] | 0.043 | 2.4 |  | 
7 | C[C@H]1COC[C@@H](c2ccc(OC(F)(F)F)cc2F)N1C(=O)c1cc2c3c(c(N)nc2cn1)COC3 (racemic) [Example 328, (4-amino-1,3-dihydrofuro[3,4-c][1,7]naphthyridin-8-yl)((3R,5S)-3-(2-fluoro-4-(trifluoromethoxy)phenyl)-5-methyl-4-morpholinyl)methanone and (4-amino-1,3-dihydrofuro[3,4-c][1,7]naphthyridin-8-yl)((3S,5R)-3-(2-fluoro-4-(trifluoromethoxy)phenyl)-5-methyl-4-morpholinyl)methanone] | 0.049 | 1 |  | 
8 | C[C@H]1OCc2c1c(N)nc1ccc(C(=O)N3[C@@H](C)COC[C@H]3c3ccc(OC(F)(F)F)cc3F)cc21 (racemic) [Example 329, ((3R)-4-amino-3-methyl-1,3-dihydrofuro[3,4-c]quinolin-8-yl)((3R,5S)-3-(2-fluoro-4-(trifluoromethoxy)phenyl)-5-methyl-4-morpholinyl)methanone and ((3R)-4-amino-3-methyl-1,3-dihydrofuro[3,4-c]quinolin-8-yl)((3S,5R)-3-(2-fluoro-4-(trifluoromethoxy)phenyl)-5-methyl-4-morpholinyl)methanone] | 0.05 | 1.52 |  | 
9 | C[C@@H]1COC[C@H](c2ccc(C(F)(F)F)cc2F)N1C(=O)c1ccc2nc(N)c3c(c2c1)COC3 (racemic) [Example 333, (4-amino-1,3-dihydrofuro[3,4-c]quinolin-8-yl)((3R,5S)-3-(2-fluoro-4-(trifluoromethyl)phenyl)-5-methyl-4-morpholinyl)methanone and (4-amino-1,3-dihydrofuro[3,4-c]quinolin-8-yl)((3S,5R)-3-(2-fluoro-4-(trifluoromethyl)phenyl)-5-methyl-4-morpholinyl)methanone] |  |  | 0.058 | 1.45
10 | C[C@H]1COC[C@@H](c2ccc(C(F)(F)F)cc2F)N1C(=O)c1cc2c3c(c(N)nc2cn1)COC3 (racemic) [Example 334, (4-amino-1,3-dihydrofuro[3,4-c][1,7]naphthyridin-8-yl)((3R,5S)-3-(2-fluoro-4-(trifluoromethyl)phenyl)-5-methyl-4-morpholinyl)methanone and (4-amino-1,3-dihydrofuro[3,4-c][1,7]naphthyridin-8-yl)((3S,5R)-3-(2-fluoro-4-(trifluoromethyl)phenyl)-5-methyl-4-morpholinyl)methanone] | 0.027 | 0.706 |  | 
11 | C[C@H]1OCc2c1c(N)nc1cnc(C(=O)N3CCOC[C@@H]3c3ccc(C(F)(F)F)cc3)cc21 (racemic) [Example 338, ((3R)-4-amino-3-methyl-1,3-dihydrofuro[3,4-c][1,7]naphthyridin-8-yl)((3S)-3-(4-(trifluoromethyl)phenyl)-4-morpholinyl)methanone and ((3S)-((4-amino-3-methyl-1,3-dihydrofuro[3,4-c][1,7]naphthyridin-8-yl)((3S)-3-(4-(trifluoromethyl)phenyl)-4-morpholinyl)methanone] | 0.1 | 5.02 |  | 
12 | C[C@H]1COC[C@@H](c2ccc(C(F)(F)F)cn2)N1C(=O)c1cc2c3c(c(N)nc2cn1)COC3 (racemic) [Example 339, (4-amino-1,3-dihydrofuro[3,4-c][1,7]naphthyridin-8-yl)((3R,5S)-3-methyl-5-(5-(trifluoromethyl)-2-pyridinyl)-4-morpholinyl)methanone and (4-amino-1,3-dihydrofuro[3,4-c][1,7]naphthyridin-8-yl)((3S,5R)-3-methyl-5-(5-(trifluoromethyl)-2-pyridinyl)-4-morpholinyl)methanone] | 0.02 | 0.497 |  | 
13 | C[C@H]1COC[C@@H](c2ccc(C(F)(F)F)nc2)N1C(=O)c1cc2c3c(c(N)nc2cn1)COC3 (racemic) [Example 340, (4-amino-1,3-dihydrofuro[3,4-c][1,7]naphthyridin-8-yl)((3R,5S)-3-methyl-5-(6-(trifluoromethyl)-3-pyridinyl)-4-morpholinyl)methanone and (4-amino-1,3-dihydrofuro[3,4-c][1,7]naphthyridin-8-yl)((3S,5R)-3-methyl-5-(6-(trifluoromethyl)-3-pyridinyl)-4-morpholinyl)methanone] | 0.071 | 6.45 |  | 
14 | Nc1nc2ccc(C(=O)N3CCOCC3c3ccc(F)c(OC(F)(F)F)c3)cc2c2c1COC2 (racemic) [Example 341, (4-amino-1,3-dihydrofuro[3,4-c]quinolin-8-yl)((3R)-3-(4-fluoro-3-(trifluoromethoxy)phenyl)-4-morpholinyl)methanone and (4-amino-1,3-dihydrofuro[3,4-c]quinolin-8-yl)((3S)-3-(4-fluoro-3-(trifluoromethoxy)phenyl)-4-morpholinyl)methanone] | 0.871 | 13.2 |  | 
